The record followed here is patent publication US20130177528A1, “COMPOSITIONS AND METHODS FOR INHIBITING VIRAL INFECTION” (WESTERN UNIVERSITY OF HEALTH SCIENCES, priority 2011, published 2013).

The test system of assay [1] is HSV-1 (KOS) gL86. Kind of assay: HSV-1 infection of HeLa, Vero and 293T cells, virus pre-incubated (Example 3). In kind it is cell-based, herpes simplex virus type-1. To be noted: HeLa cells; virus 30 pfu/cell pre-incubated 90 min; 6 hr. The procedure: CN blocks herpes simplex virus type-1 (HSV-1) infection of natural target cells. HeLa, Vero and 293T cells were each grown to 100% confluency in 96-well plates. The β-galactosidase-expressing recombinant virus HSV-1 (KOS) HSV-1 gL86 (30 pfu/cell) was pre-incubated with CN at the concentration indicated in FIG. 7 or mock treated with 1 X phosphate saline buffer for 90 min at room temperature. After 6 hr, the cells were washed, permeabilized and incubated with ONPG substrate (3.0 mg/ml). The β-gal enzymatic activity was measured at an optical density of 410 nm (OD 410). Each value shown in FIG. 7 is the mean of three or more determinations (±SD). Mock treated HSV-1 with PBS was used as a control. HSV-1 infection of HeLa (panel A) and Vero and 293T cells (panel B) was blocked by CN.

Assay [2] deals with β-galactosidase-expressing recombinant Adenovirus. Kind of assay: Adenovirus infection of HeLa cells (Example 7). In kind it is cell-based. To be noted: similar experiments as for CN. The procedure:
HeLa cells were infected with a β-galactosidase-expressing recombinant Adenovirus were pre-incubated with CN at (1) the dilution indicated in FIG. 11, panel A (stock concentration 22 nM) or (2) the concentrations indicated in FIG. 11, panel B, or mock treated with 1 X phosphate saline buffer for 90 min at room temperature. After 12 hr, the cells were washed, permeabilized and incubated with ONPG substrate (3.0 mg/ml) for quantitation of β-galactosidase activity expressed from the input viral genome. Positive (Pos) infected with virus alone; Negative (Neg) uninfected control. The enzymatic activity was measured at an optical density of 410 nm (OD 410).

In assay [3] the test system is HSV-2 (333 gJ-reporter virus). Kind of assay: HSV-2 infection of HeLa cells, ONPG assay (Example 4). In kind it is cell-based. The note with it: virus pre-incubated; starting concentration 1 mg/ml. On the procedure: In this experiment different clinical strains of HSV-1 (F, G, and MP strains of HSV-1 [37] at 25 pfu/cell) were either pre-incubated with 1×PBS (control) or with CN at the concentrations indicated in FIG. 8, panel A for 90 min at room temperature. After 90 min of incubation the two pools of viruses were incubated with Nectin-1 receptor expressing CHO Igβ cells that express β-galactosidase upon viral entry as described. The viral infection blocking was measured by ONPG assay (FIG. 8, panel A). Similar experiment was conducted using Lac Z encoded HSV-2 (333 gJ-reporter virus). HSV-2 is a genital herpes virus. […] Each value shown is the mean of three or more determinations (±SD).

Assay [4] has as its system HSV-1 (KOS) gL86. Put plainly: HSV-1 infection of HeLa cells at MOIs 5, 15 and 25 PFU/cell (Example 6). The note with it: virus pre-incubated 180 min, 6 hr. It is filed as cell-based, herpes simplex virus type-1. The procedure:
HeLa cells were each grown to 100% confluency in 96-well plates. The β-galactosidase-expressing recombinant virus HSV-1 (KOS) HSV-1 gL86 […] was pre-incubated at MOIs of 5 (FIG. 10, panel A), 15 (FIG. 10, panel B) and 25 (FIG. 10, panel C) plaque-forming units per cell (PFU) with VCN (VN), CN or ADAM15 (Ad15) at the concentrations indicated or mock treated with 1 X phosphate saline buffer for 180 min at room temperature. After 6 hr, the cells were washed, permeabilized and incubated with ONPG substrate (3.0 mg/ml). The β-gal enzymatic activity was measured at an optical density of 410 nm (OD 410). Mock treated HSV-1 with PBS was used as a […] control ((+) infected with virus alone; (−) uninfected control).

vicrostatin [VCN]: in assay [1], the “HSV-1 infection (β-gal activity, OD 410)” value is recorded as “blocked HSV-1 infection of HeLa cells”. In addition, the IC50 in assay [2] came to 21 µM. In addition, the “HSV-2 infection of HeLa cells (dose response, ONPG assay)” value in assay [3] is “significantly inhibited HSV-2 infection”. The “HSV-1 infection of HeLa cells, blocking and rank order (β-gal activity, OD 410)” value in assay [4] is listed as “blocked by CN >VCN >ADAM15”.

B1: ADAM15: ADAM15 (Ad15) polypeptide tested against HSV-1; exact construct not stated (protein, UniProt Q13444 207-863, looked up)
Disintegrin and …: DVVTETKTVELVIVADHSEAQKYRDFQHLLNRTLEVALLLDTFFRPLNVRVALVGLEAWTQRDLVEISPNPAVTLENFLHWRRAHLLPRLPHDSAQLVTGTSFSGPTVGMAIQNSICSPDFSGGVNMDHSTSILGVASSIAHELGHSLGLDHDLPGNSCPCPGPAPAKTCIMEASTDFLPGLNFSNCSRRALEKALLDGMGSCLFERLPSLPPMAAFCGNMFVEPGEQCDCGFLDDCVDPCCDSLTCQLRPGAQCASDGPCCQNCQLRPSGWQCRPTRGDCDLPEFCPGDSSQCPPDVSLGDGEPCAGGQAVCMHGRCASYAQQCQSLWGPGAQPAAPLCLQTANTRGNAFGSCGRNPSGSYVSCTPRDAICGQLQCQTGRTQPLLGSIRDLLWETIDVNGTELNCSWVHLDLGSDVAQPLLTLPGTACGPGLVCIDHRCQRVDLLGAQECRSKCHGHGVCDSNRHCYCEEGWAPPDCTTQLKATSSLTTGLLLSLLVLLVLVMLGASYWYRARLHQRLCQLKGPTCQYRAAQSGPSERPGPPQRALLARGTKQASALSFPAPPSRPLPPDPVSKRLQAELADRPNPPTRPLPADPVVRSPKSQGPAKPPPPRKPLPADPQGRCPSGDLPGPGAGIPPLVVPSRPAPPPPTVSSLYL
B1: in assay [4], the “HSV-1 infection of HeLa cells, blocking and rank order (β-gal activity, OD 410)” value is listed as “blocked by CN >VCN >ADAM15”.

What is called IC50 is the concentration that gives 50% inhibition.
